# In ChEMBL document CHEMBL5344412, “Dual degradation mechanism of GPX4 degrader in induction of ferroptosis exerting anti-resistant tumor effect” (Eur J Med Chem, 2023):
# The source made the active and inactive calls. No cut-off for these calls is given here.
# Assays:
# [1] = target: T1, Phospholipid hydroperoxide glutathione peroxidase GPX4 (Homo sapiens) (UniProt P36969); test: Induction of GPX4 degradation in human HT-1080 cells at 100 nM incubated for 6 hrs relative to control; assay type: cell-based
# T1 sequence (whole entry): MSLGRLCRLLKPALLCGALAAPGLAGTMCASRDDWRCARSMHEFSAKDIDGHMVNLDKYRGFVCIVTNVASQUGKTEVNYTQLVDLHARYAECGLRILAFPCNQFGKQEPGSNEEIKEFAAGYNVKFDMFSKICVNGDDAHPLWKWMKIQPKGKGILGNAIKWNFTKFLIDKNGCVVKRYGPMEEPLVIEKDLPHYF
# [2] = target: T1, Phospholipid hydroperoxide glutathione peroxidase GPX4 (Homo sapiens); test: Induction of GPX4 degradation in human HT-1080 cells at 0.1 uM incubated for 6 hrs in presence of PYR41 by Western blot analysis; assay type: cell-based
# HT-1080 [3] = test: Antiproliferative activity against human HT-1080 cells assessed as inhibition of cell growth incubated for 24 hrs by MTT assay; assay type: functional, cell-based; settings: HT-1080, 24 h
# NCI-H1650 = test: Antiproliferative activity against human NCI-H1650 cells assessed as inhibition of cell growth incubated for 24 hrs by MTT assay; assay type: functional, cell-based; settings: NCI-H1650, 24 h
# [4] = target: T1, Phospholipid hydroperoxide glutathione peroxidase GPX4 (Homo sapiens); test: Induction of GPX4 degradation in human HT-1080 cells at 0.1 uM incubated for 6 hrs in presence of […] by Western blot analysis; assay type: cell-based
# Calu-1 = test: Antiproliferative activity against human Calu-1 cells assessed as inhibition of cell growth incubated for 24 hrs by MTT assay; assay type: functional, cell-based; settings: Calu-1, 24 h
# [5] = target: T1, Phospholipid hydroperoxide glutathione peroxidase GPX4 (Homo sapiens); test: Induction of GPX4 degradation in human HT-1080 cells at 0.1 uM incubated for 24 hrs in presence of 20 uM of liproxstatin-1 by Western blot analysis; assay type: cell-based
# [6] = target: T1, Phospholipid hydroperoxide glutathione peroxidase GPX4 (Homo sapiens); test: Induction of GPX4 degradation in human HT-1080 cells at 0.1 uM by Western blot analysis; assay type: cell-based
# [7] = Antiproliferative activity against human Gefitinib-resistant H1650 cell assessed as inhibition of cell growth incubated for 24 hrs by MTT assay; assay type: functional, cell-based
# [8] = target: T2, Phospholipid hydroperoxide glutathione peroxidase GPX4 (Homo sapiens, UniProt P36969); test: (§1) Induction of GPX4 degradation in human Calu-1 cells measured for 24 hrs by Western blot analysis; assay type: cell-based
# T2 sequence (P36969 whole entry): T1 sequence (whole entry)
# [9] = target: T1, Phospholipid hydroperoxide glutathione peroxidase GPX4 (Homo sapiens); test: as §1; assay type: cell-based; settings: dose 0.1-10000 nM
# [10] = target: T1, Phospholipid hydroperoxide glutathione peroxidase GPX4 (Homo sapiens); test: Induction of GPX4 degradation in human HT-1080 cells at 0.1 uM pretreated for 2 hrs followed by V5 addition and measured after 6 hrs by Western blot analysis; assay type: cell-based; settings: time 8.0 hrs
# HT-1080 [11] = test: Induction of ROS production in human HT-1080 cells assessed as increase in ROS positive cells at 0.1 uM incubated for 4 hrs by C11-BODIPY581/891 staining based flow cytometry analysis; assay type: functional, cell-based
# [12] = target: T1, Phospholipid hydroperoxide glutathione peroxidase GPX4 (Homo sapiens); test: Induction of GPX4 degradation in human Calu-1 cells at 0.3 uM measured for 4 hrs by Western blot analysis; assay type: cell-based
# [13] = target: T1, Phospholipid hydroperoxide glutathione peroxidase GPX4 (Homo sapiens); test: Induction of GPX4 degradation in human HT-1080 cells at 0.1 uM incubated for 24 hrs in presence of Nec-1 by Western blot analysis; assay type: cell-based
# HT-1080 [14] = test: Induction of ROS production in human HT-1080 cells assessed as increase in ROS positive cells at 0.1 uM preincubated with liproxstatin-1 for 2 hrs followed by compound addition and measured after for 7 hrs by C11-BODIPY581/891 staining based flow cytometry analysis; assay type: functional, cell-based
# [15] = target: T1, Phospholipid hydroperoxide glutathione peroxidase GPX4 (Homo sapiens); test: Induction of GPX4 degradation in human HT-1080 cells at 0.1 uM incubated for 24 hrs in presence of ZVF by Western blot analysis; assay type: cell-based
# [16] = target: T2, Phospholipid hydroperoxide glutathione peroxidase GPX4; test: (§2) Induction of GPX4 degradation in human NCI-H1650 cells incubated for 24 hrs by Western blot analysis; assay type: cell-based
# [17] = target: T1, Phospholipid hydroperoxide glutathione peroxidase GPX4 (Homo sapiens); test: as §2; assay type: cell-based; settings: dose 10-1000 nM
# [18] = target: T1, Phospholipid hydroperoxide glutathione peroxidase GPX4 (Homo sapiens); test: Induction of GPX4 degradation in human HT-1080 cells at 0.1 uM measured for 6 hrs by Western blot analysis; assay type: cell-based
# HT-1080 [19] = test: Induction of ferroptosis in human HT-1080 cells assessed as increase in cell survival at 0.1 uM incubated for 24 hrs in presence of 1.670 uM of liproxstatin-1 by MTT assay; assay type: functional
# HT-1080 [20] = test: Induction of ferroptosis in human HT-1080 cells assessed as increase in cell survival at 0.1 uM incubated for 24 hrs in presence of 0.185 uM of liproxstatin-1 by MTT assay; assay type: functional
# HT-1080 [21] = test: Induction of ferroptosis in human HT-1080 cells assessed as increase in cell survival at 0.1 uM incubated for 24 hrs in presence of 0.061 uM of liproxstatin-1 by MTT assay; assay type: functional
# [22] = target: T1, Phospholipid hydroperoxide glutathione peroxidase GPX4 (Homo sapiens); test: Induction of GPX4 degradation in human HT-1080 cells at 0.1 uM measured for 24 hrs by Western blot analysis; assay type: cell-based
# HT-1080 [23] = test: Induction of ferroptosis in human HT-1080 cells assessed as increase in cell survival at 0.1 uM incubated for 24 hrs in presence of 0.020 uM of liproxstatin-1 by MTT assay; assay type: functional
# [24] = target: T1, Phospholipid hydroperoxide glutathione peroxidase GPX4 (Homo sapiens); test: Induction of GPX4 degradation in human HT-1080 cells at 0.1 uM measured for 1 hr by Western blot analysis; assay type: cell-based
# [25] = target: T2, Phospholipid hydroperoxide glutathione peroxidase GPX4; test: (§3) Induction of GPX4 degradation in human Gefitinib-resistant H1650 cells incubated for 24 hrs by Western blot analysis; assay type: cell-based, Gefitinib-resistant H1650 cell
# [26] = target: T1, Phospholipid hydroperoxide glutathione peroxidase GPX4 (Homo sapiens); test: as §3; assay type: cell-based; settings: Gefitinib-resistant H1650 cell, dose 10-1000 nM
# [27] = target: T1, Phospholipid hydroperoxide glutathione peroxidase GPX4 (Homo sapiens); test: Induction of GPX4 degradation in human HT-1080 cells at 0.1 uM incubated for 24 hrs in presence of Baf-A1 by Western blot analysis; assay type: cell-based
# HT-1080 [28] = test: Induction of ferroptosis in human HT-1080 cells assessed as increase in cell survival at 0.1 uM incubated for 24 hrs in presence of 5 uM of liproxstatin-1 by MTT assay; assay type: functional
# HT-1080 [29] = test: Induction of ferroptosis in human HT-1080 cells assessed as increase in cell survival at 0.1 uM incubated for 24 hrs in presence of 0.006 uM of liproxstatin-1 by MTT assay; assay type: functional
# [30] = target: T2, Phospholipid hydroperoxide glutathione peroxidase GPX4; test: (§4) Induction of GPX4 degradation in human HT-1080 cells measured for 6 hrs by Western blot analysis; assay type: cell-based
# [31] = target: T1, Phospholipid hydroperoxide glutathione peroxidase GPX4 (Homo sapiens); test: as §4; assay type: cell-based; settings: dose 0.3-1000 nM
# [32] = Toxicity in Balb/c nude mouse xenografted with human HT-1080 cells assessed as change in body weight at 200 mg/kg, sc measured for 16 days; assay type: organism-based; settings: in vivo, 384 h, time 16 day
# [33] = target: T1, Phospholipid hydroperoxide glutathione peroxidase GPX4 (Homo sapiens); test: Induction of GPX4 degradation in human NCI-H1650 cells at 0.3 uM incubated for 24 hrs by Western blot analysis; assay type: cell-based
# [34] = target: T1, Phospholipid hydroperoxide glutathione peroxidase GPX4 (Homo sapiens); test: Induction of GPX4 degradation in human Calu-1 cells at 0.3 uM measured for 8 hrs by Western blot analysis; assay type: cell-based
# HT-1080 [35] = test: Induction of ferroptosis in human HT-1080 cells assessed as increase in cell survival at 0.1 uM incubated for 24 hrs in presence of 0.556 uM of liproxstatin-1 by MTT assay; assay type: functional
smiles,measurement,setting,value
COC(=O)[C@H]1Cc2c([nH]c3ccccc23)[C@H](c2ccc(C(=O)N3CCN(CCCCCCCN[C@H](C(=O)N4C[C@H](O)C[C@H]4C(=O)N[C@@H](C)c4ccc(-c5scnc5C)cc4)C(C)(C)C)CC3)cc2)N1C(=O)CCl,Activity,[1],36%
COC(=O)[C@H]1Cc2c([nH]c3ccccc23)[C@H](c2ccc(C(=O)N3CCN(CCCCCCCCCCCN[C@H](C(=O)N4C[C@H](O)C[C@H]4C(=O)N[C@@H](C)c4ccc(-c5scnc5C)cc4)C(C)(C)C)CC3)cc2)N1C(=O)CCl,Activity,[1],52%
COC(=O)[C@H]1Cc2c([nH]c3ccccc23)[C@H](c2ccc(C(=O)N3CCN(CCCCCCCCCN[C@H](C(=O)N4C[C@H](O)C[C@H]4C(=O)N[C@@H](C)c4ccc(-c5scnc5C)cc4)C(C)(C)C)CC3)cc2)N1C(=O)CCl,Activity,[1],39%
COC(=O)[C@H]1Cc2c([nH]c3ccccc23)[C@H](c2ccc(C(=O)N3CCN(CCCCCCCCCCCCCCN[C@H](C(=O)N4C[C@H](O)C[C@H]4C(=O)N[C@@H](C)c4ccc(-c5scnc5C)cc4)C(C)(C)C)CC3)cc2)N1C(=O)CCl,Activity,[1],55%
COC(=O)c1ccc([C@H]2c3[nH]c4ccccc4c3C[C@H](C(=O)OC)N2C(=O)CCl)cc1,Activity,[2],inactive
same,IC50,HT-1080 [3],130 nM
same,IC50,NCI-H1650,7750 nM
same,Activity,[4],inactive
same,IC50,Calu-1,50 nM
same,Activity,[5],inactive
same,Activity,[6],Active
same,IC50,[7],5520 nM
COC(=O)[C@H]1Cc2c([nH]c3ccccc23)[C@H](c2ccc(C(=O)N3CCN(CCCCCCCCCCCCCN[C@H](C(=O)N4C[C@H](O)C[C@H]4C(=O)N[C@@H](C)c4ccc(-c5scnc5C)cc4)C(C)(C)C)CC3)cc2)N1C(=O)CCl,EC50,[8],136 nM
same,Activity,[9],Dose-Dependent Effect
same,Activity,[10],inactive
same,Activity,HT-1080 [11],Active
same,Activity,[12],Active
same,Activity,[2],inactive
same,Activity,[1],63%
same,Activity,[13],inactive
same,Activity,HT-1080 [14],Active
same,IC50,HT-1080 [3],58 nM
same,Activity,[15],inactive
same,EC50,[16],42.7 nM
same,Activity,[17],Dose-Dependent Effect
same,IC50,NCI-H1650,2100 nM
same,Activity,[18],100%
same,Activity,[4],inactive
same,Activity,HT-1080 [19],88.5%
same,IC50,Calu-1,25 nM
same,Activity,HT-1080 [20],92.5%
same,Activity,HT-1080 [21],82.7%
same,Activity,[22],Active
same,Activity,HT-1080 [23],82.7%
same,Activity,[24],Active
same,Activity,[5],Active
same,EC50,[25],25.6 nM
same,Activity,[26],Dose-Dependent Effect
same,Activity,[27],inactive
same,Activity,HT-1080 [28],92.1%
same,Activity,HT-1080 [29],74.8%
same,EC50,[30],23.3 nM
same,Activity,[31],Dose-Dependent Effect
same,Activity,[32],Non-Toxic
same,Activity,[33],100%
same,Activity,[6],Active
same,Activity,[34],100%
same,IC50,[7],1560 nM
same,Activity,HT-1080 [35],91.5%
Cc1onc(C(=O)N2CCN(C(c3ccc(Cl)cc3)c3ccc(Cl)cc3)CC2)c1[N+](=O)[O-],IC50,Calu-1,630 nM
COC(=O)[C@H]1Cc2c([nH]c3ccccc23)[C@H](c2ccc(C(=O)N3CCN(CCCCCCCCCCCCN[C@H](C(=O)N4C[C@H](O)C[C@H]4C(=O)N[C@@H](C)c4ccc(-c5scnc5C)cc4)C(C)(C)C)CC3)cc2)N1C(=O)CCl,Activity,[1],60%
